What was measured:
Experiment in all cases: relative viability (nuclei count vs DMSO), 5 days (fraction); higher = more cells survive
Etoposide + Decitabine = compound: COc1cc([C@@H]2c3cc4c(cc3[C@@H](O[C@@H]3O[C@@H]5CO[C@@H](C)O[C@H]5[C@H](O)[C@H]3O)[C@H]3COC(=O)[C@H]23)OCO4)cc(OC)c1O [Etoposide] + Nc1ncn([C@H]2C[C@H](O)[C@@H](CO)O2)c(=O)n1 [Decitabine] (partner 2 µM)
Outline: (§1)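 Each reported value is a median over duplicate plates. It expresses relative viability: treated-well nuclei count divided by vehicle-well nuclei count. Lung cancer cell lines in 1536-well plates were dosed by pin tool a day after seeding, alone with one drug or with a fixed anchor-drug dose plus five library-drug doses (not always all listed) in √10 steps, and nuclei were counted after 5 days.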

Bleomycin + Olaparib = compound: CC1=C(N=C(N=C1N)[C@H](CC(=O)N)NC[C@@H](C(=O)N)N)C(=O)N[C@@H]([C@H](C2=CN=CN2)OC3C(C(C(C(O3)CO)O)O)OC4C(C(C(C(O4)CO)O)OC(=O)N)O)C(=O)N[C@H](C)[C@H]([C@H](C)C(=O)N[C@@H]([C@@H](C)O)C(=O)NCCC5=NC(=CS5)C6=NC(=CS6)C(=O)NCCC[S+](C)C)O [Bleomycin] + O=C(c1cc(Cc2n[nH]c(=O)c3ccccc23)ccc1F)N1CCN(C(=O)C2CC2)CC1 [Olaparib] (partner 8 µM); conditions: main component drawn
Outline: as §1

Bleomycin + Lapatinib = compound: CC1=C(N=C(N=C1N)[C@H](CC(=O)N)NC[C@@H](C(=O)N)N)C(=O)N[C@@H]([C@H](C2=CN=CN2)OC3C(C(C(C(O3)CO)O)O)OC4C(C(C(C(O4)CO)O)OC(=O)N)O)C(=O)N[C@H](C)[C@H]([C@H](C)C(=O)N[C@@H]([C@@H](C)O)C(=O)NCCC5=NC(=CS5)C6=NC(=CS6)C(=O)NCCC[S+](C)C)O [Bleomycin] + CS(=O)(=O)CCNCc1ccc(-c2ccc3ncnc(Nc4ccc(OCc5cccc(F)c5)c(Cl)c4)c3c2)o1 [Lapatinib] (partner 2 µM); conditions: main component drawn
Outline: as §1

Etoposide + Tozasertib = compound: COc1cc([C@@H]2c3cc4c(cc3[C@@H](O[C@@H]3O[C@@H]5CO[C@@H](C)O[C@H]5[C@H](O)[C@H]3O)[C@H]3COC(=O)[C@H]23)OCO4)cc(OC)c1O [Etoposide] + Cc1cc(Nc2cc(N3CCN(C)CC3)nc(Sc3ccc(NC(=O)C4CC4)cc3)n2)n[nH]1 [Tozasertib] (partner 0.1 µM)
Outline: as §1

Cell Line | relative viability (Etoposide + Decitabine; first compound 0.01 µM) | relative viability (Etoposide + Decitabine; first compound 0.03162 µM) | relative viability (Etoposide + Decitabine; first compound 0.1 µM) | relative viability (Etoposide + Decitabine; first compound 0.3162 µM) | relative viability (Etoposide + Decitabine; first compound 1 µM) | relative viability (Bleomycin + Olaparib; first compound 0.01 µM) | relative viability (Bleomycin + Olaparib; first compound 0.03162 µM) | relative viability (Bleomycin + Olaparib; first compound 0.1 µM) | relative viability (Bleomycin + Olaparib; first compound 0.3162 µM) | relative viability (Bleomycin + Olaparib; first compound 1 µM) | relative viability (Bleomycin + Lapatinib; first compound 0.01 µM) | relative viability (Bleomycin + Lapatinib; first compound 0.03162 µM) | relative viability (Bleomycin + Lapatinib; first compound 0.1 µM) | relative viability (Bleomycin + Lapatinib; first compound 0.3162 µM) | relative viability (Bleomycin + Lapatinib; first compound 1 µM) | relative viability (Etoposide + Tozasertib; first compound 0.01 µM) | relative viability (Etoposide + Tozasertib; first compound 0.03162 µM) | relative viability (Etoposide + Tozasertib; first compound 0.3162 µM) | relative viability (Etoposide + Tozasertib; first compound 1 µM) | relative viability (Etoposide + Tozasertib; first compound 0.1 µM)
NCI-H727 | 1.11 | 0.985 | 0.681 | 0.796 | 0.63 | 0.732 | 0.634 | 0.612 | 0.592 | 0.624 | 0.718 | 0.781 | 0.695 | 0.204 | 0.472 | 0.623 | 0.677 | 0.605 | 0.692 | –
NCI-H838 | 0.445 | 0.487 | 0.49 | 0.367 | 0.248 | 0.432 | 0.269 | 0.199 | 0.138 | 0.148 | 0.478 | 0.229 | 0.184 | 0.159 | 0.152 | 0.348 | 0.295 | 0.211 | 0.24 | 0.307
NCI-H1355 | 0.362 | 0.384 | 0.363 | 0.279 | 0.287 | 0.669 | 0.71 | 0.676 | 0.341 | 0.228 | 0.901 | 1.15 | 0.837 | 0.337 | 0.257 | 0.515 | 0.536 | 0.313 | 0.228 | 0.433
NCI-H1395 | 0.726 | 0.755 | 0.681 | 0.667 | 0.653 | 0.434 | 0.448 | 0.406 | 0.35 | 0.377 | 0.965 | 0.841 | 0.711 | 0.417 | 0.397 | 0.616 | 0.758 | 0.74 | 0.592 | 0.665
NCI-H1437 | 0.537 | 0.632 | 0.568 | 0.441 | 0.332 | 0.571 | 0.593 | 0.499 | 0.397 | 0.378 | 0.711 | 0.743 | 0.775 | 0.296 | 0.373 | 0.433 | 0.4 | 0.293 | 0.318 | 0.429
NCI-H1650 | 0.346 | 0.314 | 0.355 | 0.195 | 0.182 | 0.285 | 0.183 | 0.167 | 0.156 | 0.158 | 0.535 | 0.321 | 0.235 | 0.147 | 0.16 | 0.381 | 0.356 | 0.197 | 0.208 | 0.337
NCI-H1651 | 0.612 | 0.688 | 0.442 | 0.241 | 0.128 | 0.177 | 0.153 | 0.172 | 0.116 | 0.122 | 0.75 | 0.653 | 0.595 | 0.229 | 0.149 | 0.675 | 0.692 | 0.159 | 0.156 | 0.547
NCI-H1666 | 0.746 | 0.798 | 0.693 | 0.582 | 0.452 | 0.65 | 0.692 | 0.644 | 0.54 | 0.599 | 0.607 | 0.417 | 0.344 | 0.247 | 0.288 | 0.551 | 0.592 | 0.356 | 0.372 | 0.485
NCI-H1734 | 0.517 | 0.513 | 0.454 | 0.379 | 0.314 | 0.505 | 0.451 | 0.377 | 0.222 | 0.148 | 0.802 | 0.854 | 0.691 | 0.268 | 0.184 | 0.269 | 0.254 | 0.273 | 0.24 | 0.279
NCI-H1755 | 0.795 | 0.731 | 0.712 | 0.622 | 0.553 | 0.782 | 0.79 | 0.833 | 0.639 | 0.599 | 0.91 | 1.03 | 0.92 | 0.631 | 0.578 | 0.57 | 0.577 | 0.483 | 0.44 | 0.565
NCI-H1793 | – | 0.497 | 0.454 | 0.345 | 0.236 | 0.845 | 0.675 | 0.589 | 0.191 | 0.195 | 0.729 | 0.567 | 0.544 | 0.275 | 0.219 | 0.324 | 0.311 | 0.316 | 0.185 | –
NCI-H1915 | 0.267 | 0.261 | 0.256 | 0.26 | 0.245 | 0.2 | 0.226 | 0.166 | 0.137 | 0.11 | 0.669 | 0.771 | 0.385 | 0.192 | 0.15 | 0.438 | 0.459 | 0.353 | 0.308 | 0.473
NCI-H1944 | 0.396 | 0.459 | 0.384 | 0.36 | 0.296 | 0.259 | 0.252 | 0.264 | 0.18 | 0.151 | 0.533 | 0.41 | 0.355 | 0.242 | 0.151 | 0.258 | 0.278 | 0.182 | 0.168 | 0.211
NCI-H1975 | 0.371 | 0.757 | 0.4 | 0.249 | 0.212 | 0.565 | 0.387 | 0.394 | 0.169 | 0.181 | 0.657 | 0.551 | 0.542 | 0.25 | 0.213 | 0.721 | 0.67 | 0.495 | 0.197 | 0.785
NCI-H1993 | – | 0.609 | 0.482 | 0.599 | 0.461 | 0.763 | 0.728 | 0.645 | 0.353 | 0.43 | 0.732 | 0.736 | 0.754 | 0.656 | 0.609 | 0.634 | 0.506 | 0.495 | 0.55 | 0.576

From the supplement of paper PMC10307832
